Measurements taken from publication PMC5222342, “Leukotriene B₄ Metabolism and p70S6 Kinase 1 Inhibitors: PF-4708671 but Not LY2584702 Inhibits CYP4F3A and the ω-Oxidation of Leukotriene B₄ In Vitro and In Cellulo” (PLoS ONE, 2017).

What was measured:
[1] = target: T1, CYP4F3A (Homo sapiens, UniProt Q08477); design: gene CYP4F3
T1 sequence (Q08477 1-520): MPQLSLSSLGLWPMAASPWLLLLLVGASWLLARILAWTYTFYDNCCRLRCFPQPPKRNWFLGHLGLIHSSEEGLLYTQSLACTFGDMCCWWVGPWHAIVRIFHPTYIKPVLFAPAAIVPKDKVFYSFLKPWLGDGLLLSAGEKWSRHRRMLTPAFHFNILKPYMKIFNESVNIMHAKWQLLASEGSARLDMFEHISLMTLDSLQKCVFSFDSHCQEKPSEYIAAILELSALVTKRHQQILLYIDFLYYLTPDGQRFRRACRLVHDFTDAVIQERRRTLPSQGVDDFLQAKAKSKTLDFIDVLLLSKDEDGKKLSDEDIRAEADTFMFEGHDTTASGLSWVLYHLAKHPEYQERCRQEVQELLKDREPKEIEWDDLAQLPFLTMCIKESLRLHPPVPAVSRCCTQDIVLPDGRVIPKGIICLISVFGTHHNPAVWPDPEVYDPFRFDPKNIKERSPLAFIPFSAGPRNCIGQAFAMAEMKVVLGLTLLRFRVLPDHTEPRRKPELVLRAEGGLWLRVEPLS

[2] = target: T1, CYP4F3A; assay: recombinant CYP4F3A LTB4 omega-oxidation assay, HPLC; Michaelis-Menten and Lineweaver-Burk kinetics; type: biochemical; design: gene CYP4F3; human recombinant CYP4F3A

| IC50 [2] [nM] | Compound | omega-oxidation of LTB4 (1-20 uM) by recombinant CYP4F3A, HPLC, Michaelis-Menten [1] |
| --- | --- | --- |
| – | CCCCC/C=C\C[C@@H](O)/C=C/C=C/C=C\[C@@H](O)CCCC(=O)O [LTB4] | Human recombinant CYP4F3A was incubated with increasing concentrations of PF-4708671 before the addition of LTB4 at different concentrations |
| ~750 | CCc1cncnc1N1CCN(Cc2nc3cc(C(F)(F)F)ccc3[nH]2)CC1 [PF-4708671] | – |
